Measurements: patent publication US20090011025A1, “Biotin-Amino Acid Conjugate Useful as a Hydrogelator and Hydrogel Prepared Therefrom” (POSTECH FOUNDATION, priority 2005, published 2009)

Assays:
[1] = Gelation capability of gelators, stable-to-inversion of container method (minimum gelation concentration, gel stability and clarity); format: physicochemical; design: key to minimum gelation concentration (MGC): —: no gel formed; settings: for stability of gel (time the gel lasted): aqueous media; for stability of gel (time the gel persisted): in each medium
Experimental: In order to examine the gelation capability of gelators 1 to 11, the degrees of gelation in various aqueous media were measured as follows, in accordance with the “stable-to-inversion of container” method (Menger, F. M. and Caran, K. L., J. Am. Chem. Soc. 2000, 122, 11679).
Specifically, 0.002 to 0.04 g of each gelator and 1 ml of an aqueous medium (distilled water, 0.9% aqueous NaCl solution, 0.01 M hydrochloric buffer (pH 2.0), 0.05 M phthalate buffer (pH 4.0), 0.08 M MOPSO buffer (pH 7.0) or 0.025 M sodium tetraborate buffer (pH 9.0)) were put into a sealed glass tube (5 mm i.d.), and the mixture was heated at 100° C. until a solution was obtained. The tube was then maintained at room temperature for 5 to 10 min.
Then, the minimum gelation concentration (MGC, wt %), i.e., the lowest concentration of a gelator at which it forms a hydrogel, of each gelator compound was determined, and the result is shown in Table 1.

[2] = Textures of the hydrogels/xerogels by scanning electron microscopy (SEM); format: physicochemical; settings: gel at MGC in distilled water, freeze-dried
Experimental: The textures of the hydrogels formed by the gelators prepared in the Examples were examined as follows, employing a scanning electron microscopy (SEM).
First, gelators 1 to 11 were each dissolved in 1 ml of distilled water in an amount ranging from 0.003 to 0.02 g to reach the corresponding MGC listed in Table 1, and the mixture was heated at 100° C. to form a hydrogel. The hydrogel was frozen at −78° C., and freeze-dried for 6 hours to obtain a xerogel.

streptavidin = streptavidin (Streptomyces avidinii, UniProt P22629); experiment: Influence of ligand-receptor interaction (streptavidin) on the gel state of a hydrogel, SEM; settings: 0.002 equivalent of streptavidin, after 1 hour
Experimental: The influence of ligand-receptor interaction on the gel state of hydrogels was examined as follows.
0.002 g of gelator 9 was added to 1 ml of distilled water, and the mixture was heated at 100° C. to form a hydrogel.

[3] = cited from earlier work
[4] = pH 2 (0.01 M hydrochloric buffer)
[5] = pH 9 (0.025 M sodium tetraborate buffer)

Chain of streptavidin (P22629 25-183, species assumed): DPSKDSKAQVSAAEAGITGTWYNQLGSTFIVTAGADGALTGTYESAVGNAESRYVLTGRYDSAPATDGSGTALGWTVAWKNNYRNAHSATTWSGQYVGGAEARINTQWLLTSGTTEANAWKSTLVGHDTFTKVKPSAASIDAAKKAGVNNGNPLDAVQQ

SMILES | melting point | clarity of gel [1] | minimum gelation concentration (MGC) ([1]; H2O/0.9% NaCl (aq.)) | stability of gel (time the gel lasted) [1] | minimum gelation concentration (MGC) [1, 4] | minimum gelation concentration (MGC) ([1]; pH 4 (0.05 M phthalate buffer)) | minimum gelation concentration (MGC) ([1]; pH 7 (0.08 M MOPSO buffer)) | minimum gelation concentration (MGC) [1, 5] | structure type of hydrogel (xerogel SEM image) [2] | stability of gel (time the gel persisted) [1] | molecules of water immobilized by one molecule of gelator ([1]; at MGC in distilled water) | gel state after addition of streptavidin (streptavidin) | solubility in organic solvents ([3]; organic solvents) | solubility in water ([3]; water)
CC[C@H](C)[C@H](NC(=O)CCCC[C@@H]1SC[C@@H]2NC(=O)N[C@@H]21)C(=O)O [Gelator 4, N-biotinyl-L-isoleucine] | 230 to 233 °C | opaque | 1.2 wt % | about 1 week | 1.0 wt % | 1.2 wt % | 2.7 wt % | 3.9 wt % | lamellar structures |  |  |  |  | 
CCCCCC(NC(=O)CCCC[C@@H]1SC[C@@H]2NC(=O)N[C@@H]21)C(=O)O (stereo partly drawn) [Gelator 10, N-biotinyl-D,L-2-aminoenantic acid] |  |  | 0.8 wt % |  | 0.6 wt % | 1.0 wt % | 2.0 wt % | 4.0 wt % |  |  |  |  |  | 
O=C(CCCC[C@@H]1SC[C@@H]2NC(=O)N[C@@H]21)N[C@@H](Cc1ccccc1)C(=O)O [Gelator 1, N-biotinyl-L-phenylalanine] | 205 °C | translucent to opaque | 2.0 wt % |  | 1.5 wt % | 2.0 wt % | 3.0 wt % | 4.0 wt % | fibrous structures | about 6 months |  |  |  | 
O=C(CCCC[C@@H]1SC[C@@H]2NC(=O)N[C@@H]21)N[C@@H](Cc1ccc(O)cc1)C(=O)O [Gelator 6, N-biotinyl-L-tyrosine] | 259 to 260 °C |  | — |  | — | — | — | — |  |  |  |  |  | 
CC(C)C[C@H](NC(=O)CCCC[C@@H]1SC[C@@H]2NC(=O)N[C@@H]21)C(=O)O [Gelator 2, N-biotinyl-L-leucine] | 209 to 210 °C | translucent to opaque | 1.6 wt % |  | 1.4 wt % | 1.8 wt % | 2.8 wt % | 3.6 wt % | fibrous structures | about 6 months |  |  |  | 
O=C(CCCC[C@@H]1SC[C@@H]2NC(=O)N[C@@H]21)N[C@@H](Cc1c[nH]c2ccccc12)C(=O)O [Gelator 7, N-biotinyl-L-tryptophan] | 160 to 161 °C |  | — |  | — | — | — | — |  |  |  |  |  | 
CC(C)[C@H](NC(=O)CCCC[C@@H]1SC[C@@H]2NC(=O)N[C@@H]21)C(=O)O [Gelator 5, N-biotinyl-L-valine] | 215 to 216 °C | opaque | 1.4 wt % | about 1 week | 1.0 wt % | 1.4 wt % | 2.7 wt % | 4.0 wt % | lamellar structures |  |  |  |  | 
CCC[C@H](NC(=O)CCCC[C@@H]1SC[C@@H]2NC(=O)N[C@@H]21)C(=O)O [Gelator 8, N-biotinyl-L-norvaline] | 255 °C | opaque | 1.2 wt % | about 1 week | 0.9 wt % | 1.2 wt % | 2.5 wt % | 3.8 wt % | lamellar structures |  |  |  |  | 
CCCCCCC(NC(=O)CCCC[C@@H]1SC[C@@H]2NC(=O)N[C@@H]21)C(=O)O (mixture of isomers) [Gelator 11, N-biotinyl-D,L-2-aminocaprylic acid] | 198.5 °C |  | 0.6 wt % |  | 0.8 wt % | 0.8 wt % | 1.7 wt % | 3.5 wt % |  |  |  |  |  | 
CSCC[C@H](NC(=O)CCCC[C@@H]1SC[C@@H]2NC(=O)N[C@@H]21)C(=O)O [Gelator 3, N-biotinyl-L-methionine] | 207 °C |  | 1.8 wt % |  | — | — | — | — |  |  |  |  |  | 
CCCC[C@H](NC(=O)CCCC[C@@H]1SC[C@@H]2NC(=O)N[C@@H]21)C(=O)O [Gelator 9, N-biotinyl-L-norleucine] | 172 °C |  | 0.3 wt % |  | 0.2 wt % | 0.5 wt % | 1.2 wt % | 1.5 wt % |  |  | 6,700 molecules of water | disrupted |  | 
O=C(O)CCCC[C@@H]1SC[C@@H]2NC(=O)N[C@@H]21 [biotin] |  |  |  |  |  |  |  |  |  |  |  |  | insolubility | 1.0-0.8 mmol/L
